Patent publication US6086918A, “Oral peptide pharmaceutical products” (Unigene Laboratories, Inc., priority 1998, dated 2000)

How the values were obtained:
[1] = Blood levels of salmon calcitonin after direct injection of active components into duodenum, ilium or colon; type: in vivo; details: active components injected directly into the duodenum
Text: The acid is believed to lower the local intestinal pH (where the active agent has been released) to levels below the optimal range for many intestinal proteases. This decrease in pH reduces the proteolytic activity of the intestinal proteases, thus affording protection to the peptide from potential degradation. The activity of these proteases is diminished by the temporarily acidic environment provided by the invention. It is preferred that sufficient acid be provided that local intestinal pH is lowered temporarily to 5.5 or below, preferably 4.7 or below and more preferably 3.5 or below. The sodium bicarbonate test described below (in the section captioned "the pH-Lowering Agent") is indicative of the required acid amount. […] The absorption enhancers of the invention synergistically promote peptide absorption into the blood while conditions of reduced proteolytic activity prevail.

[2] = cited from earlier work
[3] = Applicant's internal comparative tests of oral formulation, sCT versus PTH; type: in vivo; details: oral formulation of the invention
[4] = Pharmacokinetics of oral calcitonin (10.5 mg) in humans; type: in vivo, human; details: 10 milligrams of salmon calcitonin alone administered to humans
Experimental: The capsules were coated for 20 min with hydroxypropylmethylcellulose phthalate 50 in a pan coater and stored at 4° C. Fasted subjects were given 1 capsule followed by a glass of orange juice in the morning of the study. Samples of blood were taken 15 minutes before taking the capsules and at the indicated times after taking the calcitonin capsule. The concentration of calcitonin in blood was determined by competitive radioimmunoassay.

Tmax for blood levels of salmon calcitonin [1]: 5 to 15 min
serum levels of salmon calcitonin [4]: no detectable serum levels
SMILES: CC(C)C[C@H](NC(=O)[C@H](CCCCN)NC(=O)CNC(=O)[C@H](CC(C)C)NC(=O)[C@@H](NC(=O)[C@@H]1CSSC[C@H](N)C(=O)N[C@@H](CO)C(=O)N[C@@H](CC(N)=O)C(=O)N[C@@H](CC(C)C)C(=O)N[C@@H](CO)C(=O)N[C@@H]([C@@H](C)O)C(=O)N1)C(C)C)C(=O)N[C@@H](CO)C(=O)N[C@@H](CCC(N)=O)C(=O)N[C@@H](CCC(=O)O)C(=O)N[C@@H](CC(C)C)C(=O)N[C@@H](Cc1c[nH]cn1)C(=O)N[C@@H](CCCCN)C(=O)N[C@@H](CC(C)C)C(=O)N[C@@H](CCC(N)=O)C(=O)N[C@H](C(=O)N[C@@H](Cc1ccc(O)cc1)C(=O)N1CCC[C@H]1C(=O)N[C@@H](CCCNC(=N)N)C(=O)N[C@H](C(=O)N[C@@H](CC(N)=O)C(=O)N[C@H](C(=O)NCC(=O)N[C@@H](CO)C(=O)NCC(=O)N[C@H](C(=O)N1CCC[C@H]1C(N)=O)[C@@H](C)O)[C@@H](C)O)[C@@H](C)O)[C@@H](C)O [Salmon calcitonin]
peak levels at which some patients report gastrointestinal distress ([2]; in vivo): ≥ 200 picograms per milliliter
detectable blood levels after injection ([2]; injection at conventional dosages): no detectable blood levels more than two hours after injection
peak levels at which effective against osteoporosis ([2]; nasal, 200 International units): ≥ 10 picograms per milliliter
half-life ([2]; subcutaneous administration in man): 20 to 40 min
peak serum concentration ([2]; subcutaneous, 100 International units): about 250 picograms per milliliter
bioavailability compared with parathyroid hormone [3]: significantly exceeds that of parathyroid hormone
